According to the NIST ThermoML archive (doi:10.1021/je500424b):

Conditions: Gas, Cylindrical cavity resonance method

O=C=O [carbon dioxide]
Conditions	speed of sound [m/s]
260 K, 317.37 kPa	249.8
260 K, 379.95 kPa	249.06
260 K, 434.17 kPa	248.41
260 K, 501.31 kPa	247.6
260 K, 562.69 kPa	246.84
260 K, 626.77 kPa	246.05
260 K, 701.21 kPa	245.12
260 K, 760.19 kPa	244.37
260 K, 822.03 kPa	243.58
260 K, 884.92 kPa	242.76
270 K, 305.05 kPa	254.61
270 K, 362.27 kPa	254.01
270 K, 460.73 kPa	252.96
270 K, 556.68 kPa	251.92
270 K, 644.89 kPa	250.96
270 K, 732.1 kPa	250
270 K, 819.89 kPa	249.01
270 K, 906.73 kPa	248.03
270 K, 977.38 kPa	247.22
280 K, 280.31 kPa	259.38
280 K, 362.38 kPa	258.61
280 K, 453.25 kPa	257.75
280 K, 537.04 kPa	256.95
280 K, 621.46 kPa	256.13
280 K, 692.2 kPa	255.44
280 K, 798.98 kPa	254.39
280 K, 884.2 kPa	253.55
280 K, 981.82 kPa	252.56
290 K, 228.71 kPa	264.19
290 K, 282.86 kPa	263.73
290 K, 355.64 kPa	263.12
290 K, 421.86 kPa	262.56
290 K, 490.56 kPa	261.98
290 K, 571.6 kPa	261.28
290 K, 655.16 kPa	260.56
290 K, 733.65 kPa	259.88
290 K, 819.49 kPa	259.12
300 K, 280.85 kPa	268.06
300 K, 340.26 kPa	267.62
300 K, 415.37 kPa	267.05
300 K, 500.85 kPa	266.39
300 K, 583.49 kPa	265.76
300 K, 663.9 kPa	265.13
300 K, 755.49 kPa	264.42
300 K, 847.25 kPa	263.7
300 K, 927.15 kPa	263.07
300 K, 1017.3 kPa	262.36
304.09 K, 434.91 kPa	268.66
304.09 K, 544.65 kPa	267.86
304.09 K, 772.25 kPa	266.17
304.09 K, 868.88 kPa	265.45
304.09 K, 968.58 kPa	264.69
312.75 K, 394.2 kPa	272.63
312.75 K, 441.68 kPa	272.31
312.75 K, 534.77 kPa	271.69
312.75 K, 636.23 kPa	271
312.75 K, 729.55 kPa	270.37
312.75 K, 858.54 kPa	269.49
312.75 K, 959.38 kPa	268.8
322.75 K, 314.03 kPa	277.28
322.75 K, 412.26 kPa	276.69
322.75 K, 522.36 kPa	276.02
322.75 K, 624.83 kPa	275.4
322.75 K, 735.59 kPa	274.72
322.75 K, 832.63 kPa	274.13
322.75 K, 929.78 kPa	273.53
332.75 K, 316.28 kPa	281.3
332.75 K, 415.5 kPa	280.76
332.75 K, 520.66 kPa	280.19
332.75 K, 544.84 kPa	280.05
332.75 K, 664.72 kPa	279.39
332.75 K, 755.5 kPa	278.89
332.75 K, 857.33 kPa	278.33
332.75 K, 958.15 kPa	277.78

C=CC [propene]
Conditions	speed of sound [m/s]
260 K, 164.45 kPa	238.03
260 K, 185.32 kPa	237.15
260 K, 206.56 kPa	236.23
260 K, 227.97 kPa	235.29
260 K, 248.96 kPa	234.36
260 K, 275.35 kPa	233.17
260 K, 293.11 kPa	232.48
270 K, 144.04 kPa	243.6
270 K, 173.01 kPa	242.51
270 K, 206.19 kPa	241.23
270 K, 236.28 kPa	240.06
270 K, 262.89 kPa	239
270 K, 263.03 kPa	239
270 K, 302.89 kPa	237.39
270 K, 333.53 kPa	236.13
270 K, 361.31 kPa	234.96
270 K, 389.41 kPa	233.76
280 K, 149.29 kPa	247.97
280 K, 188.35 kPa	246.64
280 K, 226.29 kPa	245.31
280 K, 267.79 kPa	243.84
280 K, 308.73 kPa	242.37
280 K, 354.13 kPa	240.69
280 K, 397.57 kPa	239.06
280 K, 438.3 kPa	237.49
280 K, 438.33 kPa	237.49
280 K, 478.89 kPa	235.89
280 K, 519.72 kPa	234.24
280 K, 556.25 kPa	232.73
290 K, 141.01 kPa	252.63
290 K, 199.13 kPa	250.82
290 K, 257.68 kPa	248.96
290 K, 313.39 kPa	247.15
290 K, 372.8 kPa	245.18
290 K, 434.96 kPa	243.06
290 K, 495.22 kPa	240.95
290 K, 553.22 kPa	238.87
290 K, 616.94 kPa	236.51
290 K, 672.07 kPa	234.4
290 K, 677.98 kPa	234.17
290 K, 695.54 kPa	233.48
300 K, 134.71 kPa	257.09
300 K, 182.3 kPa	255.75
300 K, 260.81 kPa	253.49
300 K, 344.4 kPa	251.01
300 K, 425.25 kPa	248.56
300 K, 505.72 kPa	246.04
300 K, 582.66 kPa	243.56
300 K, 661.1 kPa	240.94
300 K, 740.35 kPa	238.22
300 K, 826.4 kPa	235.15
300 K, 903.31 kPa	232.29
300 K, 960.98 kPa	230.07
310 K, 142.07 kPa	261.05
310 K, 235.24 kPa	258.61
310 K, 325.91 kPa	256.18
310 K, 424.89 kPa	253.46
310 K, 520.89 kPa	250.75
310 K, 623.06 kPa	247.76
310 K, 713.38 kPa	245.04
310 K, 810.73 kPa	242.01
310 K, 906.76 kPa	238.9
310 K, 952.69 kPa	237.37
320 K, 142.67 kPa	265.1
320 K, 210.07 kPa	263.49
320 K, 279.66 kPa	261.81
320 K, 349.85 kPa	260.08
320 K, 425.07 kPa	258.19
320 K, 509.07 kPa	256.04
320 K, 596.12 kPa	253.77
320 K, 677.09 kPa	251.6
320 K, 756.59 kPa	249.42
320 K, 834.83 kPa	247.22
320 K, 905.02 kPa	245.21
320 K, 976.94 kPa	243.09
330 K, 151.93 kPa	268.88
330 K, 227.66 kPa	267.22
330 K, 302.35 kPa	265.55
330 K, 380.89 kPa	263.77
330 K, 455.62 kPa	262.04
330 K, 550.82 kPa	259.81
330 K, 642.65 kPa	257.6
330 K, 732.74 kPa	255.39
330 K, 821.61 kPa	253.16
330 K, 912.04 kPa	250.84
330 K, 1001.4 kPa	248.5
